Measured values: patent publication US20250170117A1, “MODULATORS OF ACKR3 AND USES THEREOF” (InterAx Biotech AG, priority 2022, published 2025)

Each molecule was assayed against T1, NanoLuc-hACKR3 (Homo sapiens, UniProt P25106) (assay: NanoBRET binding study (displacement of fluorescently labelled CXCL12)). Conditions: displacement of 0.3 nM CXCL12-AF647; membranes of HEK293T cells expressing NanoLuc-ACKR3; 1 hour incubation; read-out: Affinity.
T1 construct: expressed in transfected cells; host or cells: HEK293T (transient, PEI; membrane preparation)
Procedure: Membranes of HEK293T cells that transiently express the NanoLuc-hACKR3 were produced. 2 million HEK293T cells were seeded per […] dish and were transfected the next day using a DNA/PEI-mix containing 0.25 μg plasmid DNA encoding for the ACKR3, 4.75 μg pcDEF3 plasmid DNA and 30 μg linear PEI. Two days after transfection, cells were collected in PBS and pelleted by centrifugation. Cell pellets were resuspended in ice-cold membrane buffer (15 mM Tris, 0.3 mM EDTA, 2 mM MgCl2, pH 7.4 at 4° C.) and were dounce-homogenized on ice by plunging the pestle […] with 1500 rpm. Cell homogenates were subsequently subjected to two freeze-thaw cycles using liquid nitrogen. Next, the cell homogenates were centrifuged at 40,000 g and pellets were resuspended in Tris-sucrose buffer (20 mM Tris, 250 mM Sucrose, pH 7.4 at 4° C.). Finally, the membrane samples were homogenized using a 23-gauge needle, snap-frozen with liquid nitrogen and stored until further experimentation at −80° C.
Binding reactions were measured in triplicate on white low-volume 384-well plates and started by combining 0.3 nM fluorescently labelled CXCL12 (CXCL12 labelled with a AF647® dye in a molar ratio of dye:peptide of 1:1, purchased from ALMAC, h-SDF-1α (AF647®), cat. No. CAF-11, Sequence:
[…](Ale xa647®)ALN), increasing concentrations of test compound (10^−5 M-10^−11 M) with 35 ng membranes (protein content) per well of HEK293T cells expressing the NanoLuc-ACKR3. All dilutions were prepared in HBSS supplemented with 0.2% BSA. After assembling the binding reaction, the plate was flash-centrifuged at 500 g. Binding reactions were then incubated for 1 hour after which NanoGlo substrate was added (310 times diluted from stock concentration) to a final volume of 13.5 μL. The reaction plate was again pulse-centrifuged to 500 g and the total light intensity was measured for 460 nm wavelength with 80 nm bandwidth and separately for wavelengths ≥610 nm using the PHERAstar-FSX (BMG Labtech, Ortenberg, Germany) with a dual emission filter. The ratio of light intensities (>610 nm over 460 nm) is a measure for the relative binding of CXCL12-A647 to the NanoLuc-ACKR3. The pharmacological data are presented in Appendix 1.

T1 sequence (P25106 whole entry): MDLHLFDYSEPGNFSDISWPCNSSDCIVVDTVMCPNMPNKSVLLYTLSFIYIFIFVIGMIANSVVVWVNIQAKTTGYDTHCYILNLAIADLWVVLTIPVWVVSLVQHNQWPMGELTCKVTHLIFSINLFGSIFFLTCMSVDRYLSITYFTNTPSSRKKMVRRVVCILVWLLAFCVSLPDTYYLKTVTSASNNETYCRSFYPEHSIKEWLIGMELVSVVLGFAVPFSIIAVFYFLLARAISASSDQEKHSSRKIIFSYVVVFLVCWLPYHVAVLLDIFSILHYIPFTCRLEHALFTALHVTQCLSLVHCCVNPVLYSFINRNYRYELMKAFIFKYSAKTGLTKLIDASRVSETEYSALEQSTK

SMILES	Ki [nM]
O=C(NCC1CCN(C(=O)c2cnc3ccccc3n2)CC1)c1cc(-c2ccc(F)cc2F)on1 [Molecule 12]	1000 to 10000
CN(C)C(=O)c1cccc(CN2CCC(CNC(=O)c3cc(-c4ccc(F)cc4F)on3)CC2)c1 [Molecule 31]	1000 to 10000
O=C(NCC1CCN(C(=O)C2CCCCC2)CC1)c1cc(-c2ccc(F)cc2F)on1 [Molecule 9]	> 10000
O=C(NCC1CCN(C/C=C/c2ccccc2)CC1)c1cnn(-c2ccc(F)cc2F)n1 [Molecule 68]	1000 to 10000
CS(=O)(=O)c1ccc(CN2CCC(CNC(=O)c3cc(-c4ccc(F)cc4F)on3)CC2)cc1 [Molecule 48]	1000 to 10000
CN(C)C(=O)c1ccc(CN2CCC(CNC(=O)c3cc(-c4ccc(F)cc4F)on3)CC2)cc1 [Molecule 41]	1000 to 10000
O=C(NCC1CCN(C(=O)C2CC2)CC1)c1cc(-c2ccc(F)cc2F)on1 [Molecule 7]	> 10000
O=C(O)c1ccc(CN2CCC(CNC(=O)c3cc(-c4ccc(F)cc4F)on3)CC2)cc1 [Molecule 40]	1000 to 10000
O=C(NCC1CCN(C/C=C/c2ccccc2)CC1)c1nc(-c2ccc(F)cc2F)c[nH]1 [Molecule 77]	1000 to 10000
O=C(NCC1CCN(C/C=C/c2ccccc2)CC1)c1nc(-c2ccc(F)cc2F)cs1 [Molecule 80]	1000 to 10000
O=C(NCC1CCN(Cc2ccc(C(F)(F)F)cc2)CC1)c1cc(-c2ccc(F)cc2F)on1 [Molecule 51]	> 10000
O=C(NCC1CCN(CC2CCCCC2)CC1)c1cc(-c2ccc(F)cc2F)on1 [Molecule 22]	1000 to 10000
O=C(NCC1CCN(C/C=C/c2ccccc2)CC1)c1csc(-c2ccc(F)cc2F)n1 [Molecule 82]	1000 to 10000
O=C(NCC1CCN(S(=O)(=O)C2CC2)CC1)c1cc(-c2ccc(F)cc2F)on1 [Molecule 14]	> 10000
O=C(NCC1CCN(Cc2ccc(OC(F)(F)F)cc2)CC1)c1cc(-c2ccc(F)cc2F)on1 [Molecule 38]	> 10000
N#Cc1ccc(CN2CCC(CNC(=O)c3cc(-c4ccc(F)cc4F)on3)CC2)cc1 [Molecule 35]	> 10000
O=C(NCC1CCN(C/C=C/c2ccccc2)CC1)c1cc(-c2ccc(F)cc2F)n[nH]1 [Molecule 58]	1000 to 10000
O=C(NCC1CCN(C(=O)C2CCC2)CC1)c1cc(-c2ccc(F)cc2F)on1 [Molecule 8]	> 10000
O=C(NCC1CCN(Cc2ccncc2)CC1)c1cc(-c2ccc(F)cc2F)on1 [Molecule 30]	1000 to 10000
O=C(NCC1CCN(Cc2ccc([N+](=O)[O-])cc2)CC1)c1cc(-c2ccc(F)cc2F)on1 [Molecule 43]	> 10000
O=C(NCC1CCN(c2ccccc2)CC1)c1cc(-c2ccc(F)cc2F)on1 [Molecule 32]	> 10000
NS(=O)(=O)c1ccc(CN2CCC(CNC(=O)c3cc(-c4ccc(F)cc4F)on3)CC2)cc1 [Molecule 49]	100 to 1000
O=C(NCC1CCN(C/C=C/c2ccccc2)CC1)c1nnn(-c2ccc(F)cc2F)n1 [Molecule 72]	100 to 1000
O=C(NCC1CCN(C2CCCCC2)CC1)c1cc(-c2ccccc2)on1 [Molecule 2]	> 10000
O=C(NCC1CCN(C2CCC2)CC1)c1cc(-c2ccc(F)cc2F)on1 [Molecule 18]	100 to 1000

More lines, now with the values ahead:

Ki [nM]	SMILES
100 to 1000	O=C(NCC1CCN(Cc2ccc(F)cc2)CC1)c1cc(-c2ccc(F)cc2F)on1 [Molecule 52]
100 to 1000	O=C(NCC1CCN(C/C=C/c2ccccc2)CC1)c1nc(-c2ccc(F)cc2F)no1 [Molecule 99]
100 to 1000	O=C(NCC1CCN(C/C=C/c2ccccc2)CC1)c1cnn(-c2ccc(F)cc2F)c1 [Molecule 64]
≤ 100	COc1ccccc1CN1CCC(CNC(=O)c2cc(-c3ccc(F)cc3F)on2)CC1 [Molecule 25]
100 to 1000	O=C(NCC1CCN(CCc2ccccc2)CC1)c1cc(-c2ccc(F)cc2F)on1 [Molecule 23]
≤ 100	O=C(NCC1CCN(C/C=C/c2ccccc2)CC1)c1ncc(-c2ccc(F)cc2F)s1 [Molecule 85]
≤ 100	O=C(NCC1CCN(C/C=C/c2ccccc2)CC1)c1cc(-c2ccc(F)cc2F)no1 [Molecule 92]
≤ 100	COC(=O)c1ccc(CN2CCC(CNC(=O)c3cc(-c4ccc(F)cc4F)on3)CC2)cc1 [Molecule 36]
≤ 100	O=C(NCC1CCN(C/C=C/c2ccccc2)CC1)c1nnc(-c2ccc(F)cc2F)s1 [Molecule 89]
100 to 1000	O=C(NCC1CCN(Cc2cccnc2)CC1)c1cc(-c2ccc(F)cc2F)on1 [Molecule 29]
100 to 1000	O=C(NCC1CCN(Cc2ccccc2)CC1)c1cc(-c2ccc(F)cc2F)on1 [Molecule 17]
100 to 1000	O=C(NCC1CCN(C2CCCC2)CC1)c1cc(-c2ccc(F)cc2F)on1 [Molecule 19]
100 to 1000	O=C(NCC1CCN(CC2CCCC2)CC1)c1cc(-c2ccc(F)cc2F)on1 [Molecule 16]
≤ 100	Cc1ccc(CN2CCC(CNC(=O)c3cc(-c4ccc(F)cc4F)on3)CC2)cc1 [Molecule 33]
≤ 100	O=C(NCC1CCN(C/C=C/c2ccccc2)CC1)c1cnc(-c2ccc(F)cc2F)s1 [Molecule 87]
≤ 100	CN(C)c1ccc(CN2CCC(CNC(=O)c3cc(-c4ccc(F)cc4F)on3)CC2)cc1 [Molecule 37]

Ki [nM]	SMILES
100 to 1000	O=C(NCC1CCN(C2CCCCCC2)CC1)c1cc(-c2ccc(F)cc2F)on1 [Molecule 20]
≤ 100	O=C(NCC1CCN(C/C=C/c2ccccc2)CC1)c1cn(-c2ccc(F)cc2F)nn1 [Molecule 61]
≤ 100	O=C(NCC1CCN(CCCc2ccccc2)CC1)c1cc(-c2ccc(F)cc2F)on1 [Molecule 24]
≤ 100	CC(=O)Nc1ccc(CN2CCC(CNC(=O)c3cc(-c4ccc(F)cc4F)on3)CC2)cc1 [Molecule 39]
≤ 100	O=C(NCC1CCN(C/C=C/c2ccccc2)CC1)c1cc(-c2ccc(F)cc2F)on1 [Molecule 42]
100 to 1000	O=C(NCC1CCN(Cc2ccccn2)CC1)c1cc(-c2ccc(F)cc2F)on1 [Molecule 28]
≤ 100	COc1cccc(CN2CCC(CNC(=O)c3cc(-c4ccc(F)cc4F)on3)CC2)c1 [Molecule 26]
100 to 1000	O=C(NCC1CCN(C/C=C/c2ccccc2)CC1)c1ncc(-c2ccc(F)cc2F)o1 [Molecule 94]
≤ 100	O=C(NCC1CCN(Cc2ccc(O)cc2)CC1)c1cc(-c2ccc(F)cc2F)on1 [Molecule 50]
≤ 100	O=C(NCC1CCN(CCCCc2ccccc2)CC1)c1cc(-c2ccc(F)cc2F)on1 [Molecule 45]
100 to 1000	COc1cc(CN2CCC(CNC(=O)c3cc(-c4ccc(F)cc4F)on3)CC2)cc(OC)c1OC [Molecule 47]
≤ 100	COc1ccc(CN2CCC(CNC(=O)c3cc(-c4ccc(F)cc4F)on3)CC2)cc1 [Molecule 27]
100 to 1000	O=C(NCC1CCN(Cc2ccc(Br)cc2)CC1)c1cc(-c2ccc(F)cc2F)on1 [Molecule 53]
≤ 100	O=C(NCC1CCN(Cc2ccc(Cl)cc2)CC1)c1cc(-c2ccc(F)cc2F)on1 [Molecule 34]
≤ 100	O=C(NCC1CCN(C/C=C/c2ccccc2)CC1)c1nnc(-c2ccc(F)cc2F)o1 [Molecule 96]
≤ 100	COc1ccc(CN2CCC(CNC(=O)c3cc(-c4ccc(F)cc4F)on3)CC2)cc1OC [Molecule 46]
